Values of other authors, collected in US20230321005A1, “PHYTONADIONE COMPOSITIONS” (CIPLA LIMITED, priority 2020, published 2023).

Key:
[1] = forms multiple peroxide and epoxy impurities

CC1=C(C/C=C(\C)CCC[C@H](C)CCC[C@H](C)CCCC(C)C)C(=O)c2ccccc2C1=O [Phytonadione, 2 - methyl - 3 - phytyl - 1, 4 - naphthoquinone]
Solubility in aqueous solvents: insoluble | Susceptibility to oxidative and photolytic degradation [1]: highly susceptible
